Results reported in the supplement of paper PMC10627819.

Experiments:
Assay in all cases: fitness (endpoint OD595 vs no drug) (fraction); higher = more growth
S. pneumoniae D39V = test system: S. pneumoniae D39V
Method in brief: (§1)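 With the first reading as background, OD595 was measured every 30 min for 14 h in 384-well plates kept at 37 °C and inoculated at OD595 0.01. TSB, LB Lennox or CY was the medium. Fitness is the optical density at the transition into stationary phase divided by the robust mean of no-drug control wells, with a cap of 1.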

S. aureus DSM 20231 = test system: S. aureus DSM 20231
Method in brief: as §1

S. aureus Newman = test system: S. aureus Newman
Method in brief: as §1
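Also: OD595 on entry to stationary phase over no-drug wells; at most 1.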

CCC[C@@H]1C[C@@H](C(=O)N[C@@H]([C@H]2O[C@H](SC)[C@H](O)[C@@H](O)[C@H]2O)[C@@H](C)O)N(C)C1 [Lincomycin] + CO[C@@]12[C@H](COC(N)=O)C3=C(C(=O)C(C)=C(N)C3=O)N1C[C@@H]1N[C@@H]12 [Mitomycin C]
Details | fitness
S. aureus DSM 20231, first compound 0.1 µg/mL, partner 0.0156 µg/mL | 0.645
S. aureus DSM 20231, first compound 0.1 µg/mL, partner 0.0312 µg/mL | 0.651
S. aureus DSM 20231, first compound 0.1 µg/mL, partner 0.0625 µg/mL | 0.502
S. aureus DSM 20231, first compound 0.2 µg/mL, partner 0.0156 µg/mL | 0.613
S. aureus DSM 20231, first compound 0.2 µg/mL, partner 0.0312 µg/mL | 0.567
S. aureus DSM 20231, first compound 0.2 µg/mL, partner 0.0625 µg/mL | 0.383
S. aureus DSM 20231, first compound 0.4 µg/mL, partner 0.0156 µg/mL | 0.217
S. aureus DSM 20231, first compound 0.4 µg/mL, partner 0.0312 µg/mL | 0.199
S. aureus DSM 20231, first compound 0.4 µg/mL, partner 0.0625 µg/mL | 0.108
S. pneumoniae D39V, first compound 0.2 µg/mL, partner 0.001075 µg/mL | 0.679
S. pneumoniae D39V, first compound 0.2 µg/mL, partner 0.00215 µg/mL | 0.69
S. pneumoniae D39V, first compound 0.2 µg/mL, partner 0.0043 µg/mL | 0.603
S. pneumoniae D39V, first compound 0.215 µg/mL, partner 0.002 µg/mL | 0.709
S. pneumoniae D39V, first compound 0.215 µg/mL, partner 0.004 µg/mL | 0.73
S. pneumoniae D39V, first compound 0.215 µg/mL, partner 0.008 µg/mL | 0.657
S. pneumoniae D39V, first compound 0.4 µg/mL, partner 0.001075 µg/mL | 0.605
S. pneumoniae D39V, first compound 0.4 µg/mL, partner 0.00215 µg/mL | 0.609
S. pneumoniae D39V, first compound 0.4 µg/mL, partner 0.0043 µg/mL | 0.497
S. pneumoniae D39V, first compound 0.43 µg/mL, partner 0.002 µg/mL | 0.615
S. pneumoniae D39V, first compound 0.43 µg/mL, partner 0.004 µg/mL | 0.614
S. pneumoniae D39V, first compound 0.43 µg/mL, partner 0.008 µg/mL | 0.514
S. pneumoniae D39V, first compound 0.8 µg/mL, partner 0.001075 µg/mL | 0.221
S. pneumoniae D39V, first compound 0.8 µg/mL, partner 0.00215 µg/mL | 0.218
S. pneumoniae D39V, first compound 0.8 µg/mL, partner 0.0043 µg/mL | 0.131
S. pneumoniae D39V, first compound 0.86 µg/mL, partner 0.002 µg/mL | 0.246
S. pneumoniae D39V, first compound 0.86 µg/mL, partner 0.004 µg/mL | 0.258
S. pneumoniae D39V, first compound 0.86 µg/mL, partner 0.008 µg/mL | 0.266

COc1c(N2C[C@@H]3CCCN[C@@H]3C2)c(F)cc2c(=O)c(C(=O)O)cn(C3CC3)c12 [Moxifloxacin] + CC1(C)S[C@@H]2[C@H](NC(=O)Cc3ccccc3)C(=O)N2[C@H]1C(=O)O [Penicillin G]
fitness, S. aureus Newman
Details | first compound 0.0075 µg/mL | first compound 0.015 µg/mL | first compound 0.03 µg/mL
partner 0.0195 µg/mL | 0.722 | 0.625 | 0.081
partner 0.039 µg/mL | 0.706 | – | 0.059
partner 0.078 µg/mL | 0.721 | 0.596 | 0.0633

C/C(=C\C(=O)OCCCCCCCCC(=O)O)C[C@@H]1OC[C@H](C[C@@H]2O[C@H]2[C@@H](C)[C@H](C)O)[C@@H](O)[C@H]1O [Pseudomonic acid] + CC1(C)S[C@@H]2[C@H](NC(=O)Cc3ccccc3)C(=O)N2[C@H]1C(=O)O [Penicillin G]
fitness, S. aureus Newman, one replicate
Details | first compound 0.0313 µg/mL | first compound 0.0625 µg/mL | first compound 0.125 µg/mL
partner 0.0195 µg/mL | 0.0428 | 0.0466 | 0.0353
partner 0.039 µg/mL | 0.0545 | 0.0468 | 0.0403
partner 0.078 µg/mL | 0.069 | 0.0571 | 0.0351

C/C(=C\C(=O)OCCCCCCCCC(=O)O)C[C@@H]1OC[C@H](C[C@@H]2O[C@H]2[C@@H](C)[C@H](C)O)[C@@H](O)[C@H]1O [Pseudomonic acid] + CCN(CC)CCOC(=O)c1ccc(N)cc1 [Procaine]
fitness, S. pneumoniae D39V
Details | first compound 0.03 µg/mL | first compound 0.06 µg/mL | first compound 0.12 µg/mL
partner 85.5 µg/mL | 0.867 | 0.69 | 0.587
partner 171 µg/mL | 0.92 | 0.762 | 0.581
partner 342 µg/mL | 0.878 | 0.716 | 0.583

fitness, S. aureus Newman, one replicate
Details | first compound 0.0313 µg/mL | first compound 0.0625 µg/mL | first compound 0.125 µg/mL
partner 85.5 µg/mL | 0.0858 | 0.046 | 0.0525
partner 171 µg/mL | 0.0636 | 0.045 | 0.0572
partner 342 µg/mL | 0.0723 | 0.0522 | 0.0551

C/C(=C\C(=O)OCCCCCCCCC(=O)O)C[C@@H]1OC[C@H](C[C@@H]2O[C@H]2[C@@H](C)[C@H](C)O)[C@@H](O)[C@H]1O [Pseudomonic acid] + COc1c(N2C[C@@H]3CCCN[C@@H]3C2)c(F)cc2c(=O)c(C(=O)O)cn(C3CC3)c12 [Moxifloxacin]
fitness, S. pneumoniae D39V
Details | partner 0.0037 µg/mL | partner 0.005 µg/mL | partner 0.0075 µg/mL | partner 0.01 µg/mL | partner 0.015 µg/mL | partner 0.02 µg/mL
first compound 0.03 µg/mL | 0.635 | 0.929 | 0.839 | 0.975 | 0.806 | 0.982
first compound 0.06 µg/mL | 0.49 | 0.834 | 0.715 | 0.876 | 0.692 | 0.869
first compound 0.12 µg/mL | 0.357 | 0.609 | 0.534 | 0.662 | 0.539 | 0.671

fitness, S. aureus Newman, one replicate
Details | first compound 0.0313 µg/mL | first compound 0.0625 µg/mL | first compound 0.125 µg/mL
partner 0.0075 µg/mL | 0.0642 | 0.025 | 0.0349
partner 0.015 µg/mL | 0.0514 | 0.0242 | 0.0408
partner 0.03 µg/mL | 0.0387 | 0.0144 | 0.0169

C/C(=C\C(=O)OCCCCCCCCC(=O)O)C[C@@H]1OC[C@H](C[C@@H]2O[C@H]2[C@@H](C)[C@H](C)O)[C@@H](O)[C@H]1O [Pseudomonic acid] + C[n+]1ccc(-c2cc[n+](C)cc2)cc1 [Paraquat]
fitness, S. pneumoniae D39V
Details | partner 1.5 µg/mL | partner 3 µg/mL | partner 6 µg/mL
first compound 0.03 µg/mL | 0.988 | 0.919 | 0.931
first compound 0.06 µg/mL | 0.837 | 0.78 | 0.779

fitness, S. aureus Newman, one replicate
Details | first compound 0.0313 µg/mL | first compound 0.0625 µg/mL | first compound 0.125 µg/mL
partner 1.25 µg/mL | 0.0626 | 0.028 | 0.0553
partner 2.5 µg/mL | 0.0649 | 0.0373 | 0.0338
partner 5 µg/mL | 0.082 | 0.0355 | 0.0668

C/C(=C\C(=O)OCCCCCCCCC(=O)O)C[C@@H]1OC[C@H](C[C@@H]2O[C@H]2[C@@H](C)[C@H](C)O)[C@@H](O)[C@H]1O [Pseudomonic acid] + Cc1onc(-c2ccccc2)c1C(=O)N[C@@H]1C(=O)N2[C@@H]1SC(C)(C)[C@@H]2C(=O)O [Oxacillin]
fitness, S. pneumoniae D39V
Details | first compound 0.03 µg/mL | first compound 0.06 µg/mL | first compound 0.12 µg/mL
partner 0.01 µg/mL | 0.948 | 0.835 | 0.589
partner 0.02 µg/mL | 0.95 | 0.819 | 0.562
partner 0.04 µg/mL | – | 0.717 | 0.424

fitness, S. aureus Newman, one replicate
Details | first compound 0.0313 µg/mL | first compound 0.0625 µg/mL | first compound 0.125 µg/mL
partner 0.0156 µg/mL | 0.058 | 0.0445 | 0.0455
partner 0.0312 µg/mL | 0.0524 | 0.0435 | 0.0505
partner 0.0625 µg/mL | 0.0522 | 0.0224 | 0.0295

COc1cc(Cc2cnc(N)nc2N)cc(OC)c1OC [Trimethoprim] + Cn1nnc(-c2ccc(-c3ccc(N4C[C@H](CO)OC4=O)cc3F)cn2)n1 [Tedizolid]
S. aureus DSM 20231, first compound 0.125 µg/mL, one replicate
Details | fitness
partner 0.0625 µg/mL | 0.846
partner 0.125 µg/mL | 0.575
partner 0.25 µg/mL | 0.289

fitness, S. aureus DSM 20231
Details | first compound 0.25 µg/mL | first compound 0.5 µg/mL | first compound 1 µg/mL
partner 0.0625 µg/mL | 0.623 | – | 0.0355
partner 0.125 µg/mL | 0.689 | 0.519 | 0.0418
partner 0.25 µg/mL | 0.502 | 0.39 | 0.192
